From paper PMC11284788, “NN1213 – A Potent, Long-Acting, and Selective Analog of Human Amylin” (Journal of Medicinal Chemistry, 2024)

Legend:
rAMY1R [1] = biological target: T1, rAMY1R (Rattus norvegicus, UniProt P32214+Q9JJ74); test: Species-specific cAMP assay, rAMY1R; details: ratio of cAMP EC50 values, rat receptors
T1 sequence (P32214 25-516): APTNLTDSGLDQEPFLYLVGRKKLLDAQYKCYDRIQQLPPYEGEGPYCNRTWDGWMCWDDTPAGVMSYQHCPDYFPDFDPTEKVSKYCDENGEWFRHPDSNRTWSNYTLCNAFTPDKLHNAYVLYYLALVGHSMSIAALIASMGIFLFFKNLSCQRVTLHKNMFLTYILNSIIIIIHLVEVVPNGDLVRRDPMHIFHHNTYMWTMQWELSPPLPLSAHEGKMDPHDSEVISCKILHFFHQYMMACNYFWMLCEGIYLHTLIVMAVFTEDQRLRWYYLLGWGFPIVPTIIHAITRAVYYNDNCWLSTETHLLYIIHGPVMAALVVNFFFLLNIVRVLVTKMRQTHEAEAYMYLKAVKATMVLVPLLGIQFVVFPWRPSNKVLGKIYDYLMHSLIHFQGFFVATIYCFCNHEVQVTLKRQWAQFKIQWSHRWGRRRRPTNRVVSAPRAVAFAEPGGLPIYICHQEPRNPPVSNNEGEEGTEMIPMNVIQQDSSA
T1 sequence (Q9JJ74 27-148 partner): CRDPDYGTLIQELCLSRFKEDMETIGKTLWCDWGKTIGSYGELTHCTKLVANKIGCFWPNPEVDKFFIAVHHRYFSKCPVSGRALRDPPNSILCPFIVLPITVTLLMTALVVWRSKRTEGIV

cAMY1R = test: Whole-cell competition binding, cAMY1R; details: IC50 for the CTR divided by that of the AMYR, canine receptors
in vivo [2] = details: male, Sprague-Dawley, rat, iv
Description: (§1) Blood samples were collected at fixed time points postdose to determine full PK profiles. Plasma samples were analyzed by ELISA. Plasma concentration–time profiles were analyzed by noncompartmental analysis.
(§2) Pharmacokinetic Evaluation. Rats: Male Sprague-Dawley rats (Taconic, Europe; body weight
(§3) approximately 400 g) were group-housed under controlled temperature conditions (20 °C ± 2 °C).
(§4) Blood was collected from the sublingual vein and rats were acclimated to handling on three separate
occasions prior to blood collection.
(§5) the tail vein of five rats. Sc injections were performed in the neck of another group of five rats. The
dosing volume was 2 mL/kg.
(§6) collected into test tubes containing EDTA for stabilization and kept on ice until centrifugation. Each
(§7) blood sample was 100 µL. Plasma was separated from whole blood by centrifugation and was stored at
–20 °C or lower until analysis.

beagle dogs = test: Acute dog food intake assay
in vivo [3] = details: male, Göttingen, minipig, iv
rats = test: Acute food intake in rats; type: in vivo, rat
in vivo [4] = details: male, beagle, dog, iv
Pharmacokinetics in rats = details: male, Sprague-Dawley, rat, plasma, sc, 5 nmol/kg
Description: as §1, §2, §3, §4
occasions prior to blood collection.
as §5
dosing volume was 2 mL/kg.
as §6, §7
–20 °C or lower until analysis.

cAMY3R = test: Species-specific cAMP assay, cAMY3R; details: for Ratio CTR/AMY3R (canine, functional): ratio of cAMP EC50 values, canine receptors
rAMY1R [5] = biological target: T1, rAMY1R; test: Whole-cell competition binding, rAMY1R; parameters: expressed in transfected cells; host or cells: BHK tk-ts 13 cells, transient, FuGENE 6; details: IC50 for the CTR divided by that of the AMYR, rat receptors
rat AMY3R = biological target: T2, rat AMY3R (Rattus norvegicus, UniProt P32214+Q9JJ73); test: cAMP FlashPlate assay, rat AMY3R; type: cell-based; details: ratio of cAMP EC50 values
T2 construct: expressed in transfected cells; host or cells: BHK tk-ts 13, transient co-transfection (FuGENE 6)
T2 sequence (P32214 25-479 isoform P32214-2 limits assumed): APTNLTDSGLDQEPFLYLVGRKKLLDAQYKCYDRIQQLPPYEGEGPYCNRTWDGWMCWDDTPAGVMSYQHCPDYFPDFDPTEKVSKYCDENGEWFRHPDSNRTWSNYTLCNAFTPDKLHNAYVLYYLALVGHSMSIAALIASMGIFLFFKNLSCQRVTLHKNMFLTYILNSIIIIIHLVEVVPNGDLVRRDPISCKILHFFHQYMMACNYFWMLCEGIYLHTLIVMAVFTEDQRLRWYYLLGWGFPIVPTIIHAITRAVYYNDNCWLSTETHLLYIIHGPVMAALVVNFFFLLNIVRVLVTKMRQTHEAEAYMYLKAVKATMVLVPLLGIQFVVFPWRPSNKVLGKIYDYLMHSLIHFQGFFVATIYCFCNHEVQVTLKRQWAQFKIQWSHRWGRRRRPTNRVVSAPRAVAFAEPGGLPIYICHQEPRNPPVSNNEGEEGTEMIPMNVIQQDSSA
T2 sequence (Q9JJ73 23-147 partner): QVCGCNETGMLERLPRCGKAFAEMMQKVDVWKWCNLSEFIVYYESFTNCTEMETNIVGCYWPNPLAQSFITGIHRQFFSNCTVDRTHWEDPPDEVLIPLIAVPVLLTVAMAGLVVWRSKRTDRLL

Compound: CC[C@H](C)[C@H](NC(=O)[C@H](C)NC(=O)CNC(=O)[C@H](Cc1ccccc1)NC(=O)[C@H](CC(N)=O)NC(=O)[C@@H]1CCCN1C(=O)[C@H](CO)NC(=O)[C@H](CO)NC(=O)[C@H](Cc1c[nH]cn1)NC(=O)[C@H](CCCNC(=N)N)NC(=O)[C@H](CC(C)C)NC(=O)[C@H](Cc1ccccc1)NC(=O)[C@H](CC(=O)O)NC(=O)[C@H](C)NC(=O)[C@H](CC(C)C)NC(=O)[C@H](CCCNC(=N)N)NC(=O)[C@H](CCC(N)=O)NC(=O)[C@@H](NC(=O)[C@H](C)NC(=O)[C@@H]1CSSC[C@H](NC(=O)[C@@H](N)CCCCNC(=O)CC[C@H](NC(=O)CC[C@H](NC(=O)CCCCCCCCCCCCCCCCCCC(=O)O)C(=O)O)C(=O)O)C(=O)N[C@@H](CC(N)=O)C(=O)N[C@@H]([C@@H](C)O)C(=O)N[C@@H](C)C(=O)N[C@@H]([C@@H](C)O)C(=O)N1)[C@@H](C)O)C(=O)N1CCC[C@H]1C(=O)N[C@@H](CO)C(=O)N[C@@H](CO)C(=O)N[C@H](C(=O)N[C@@H](CC(N)=O)C(=O)N[C@H](C(=O)NCC(=O)N[C@@H](CO)C(=O)N[C@@H](CCCNC(=N)N)C(=O)N[C@H](C(=O)N[C@@H](Cc1ccc(O)cc1)C(N)=O)[C@@H](C)O)C(C)C)[C@@H](C)O [NN1213]
- Ratio CTR/AMY1R (rat, functional) (rAMY1R [1]): 336
- Ratio CTR/AMY1R (canine, binding) (cAMY1R): 73
- half-life (in vivo [2]): 24 h
- food intake reduction, first 48 h (beagle dogs; single sc administration 300 nmol/kg, four meals over 48 h): 90%
- effect on appetite (beagle dogs; single sc dose 3 nmol/kg): did not affect appetite
- duration of appetite suppression (beagle dogs; single sc dose 30 nmol/kg): at least 7 days
- tolerability (discomfort, vomiting) (beagle dogs; single sc dose ranging from 3 to 300 nmol/kg): not associated with any signs of discomfort in the dogs and no vomiting
- half-life (in vivo [3]): 116 h
- food intake reduction, following 24 h (rats; single sc dose 3 nmol/kg, 24–48 h, compared to controls): 15%
- food intake reduction, first 24 h (rats; single sc dose 3 nmol/kg, compared to controls): 25%
- food intake reduction, first 24 h (rats; single sc dose 100 nmol/kg): 70%
- half-life (in vivo [4]): 76 h
- bioavailability (Pharmacokinetics in rats): ~40%
- cAMY3R pEC50 (cAMY3R; cAMP HTRF, transiently transfected BHK cells, 30 min room temperature, five experiments): 9.74
- Ratio CTR/AMY3R (canine, functional) (cAMY3R): 2
- Ratio CTR/AMY3R (canine, functional) (cAMY3R; listed as NN1213/peptide 21): 3
- Ratio CTR/AMY1R (rat, binding) (rAMY1R [5]): 190
- ratio rCTR/rAMY3R (rat AMY3R): 391
